Measured values reported in patent US20240299304A1, “A METHOD FOR THE PRODUCTION OF GASTRORETENTIVE COMPACT MATRICES FOR THE CONTROLLED RELEASE OF ACTIVE SUBSTANCES AND COMPACT MATRICES THUS OBTAINED” (UNIVERSITA DEGLI STUDI DI GENOVA, priority 2021, published 2024).

Assay: pH in water of pH regulators before and after heat treatment
Assay type: physicochemical
Conditions: for pH in water after heat treatment: after heat treatment at 150° C. for 15 min

Row | Compound | pH in water after heat treatment | pH in water before heat treatment
1 | O=C([O-])[O-].[Mg+2] [MgCO3] | 7 | 6
2 | O=C([O-])[O-].[Na+].[Na+] [Na2CO3, sodium carbonate] | 10 | 10
3 | O=P([O-])([O-])O.[Na+].[Na+] [Na2HPO4 2H2O, disodium hydrogen phosphate] | 6 | 6
4 | O.O.O.O.O.O.O.O.O.O.O.O.O=P([O-])([O-])[O-].[Na+].[Na+].[Na+] [Na3PO4 12H2O] | 10 | 10
5 | O=C([O-])O.[Na+] [NaHCO3, sodium bicarbonate] | 10 | 7
